Data: patent US6835734B2, “1,3-dioxolanes with antitussive activity” (Dompé S.p.A., priority 2000, dated 2004)

How the values were obtained:
[1] = system: male Dunkin-Hartley Guinea pigs; assay: capsaicin aerosol-induced cough after intravenous administration; assay type: in vivo, Guinea pig; settings: for recorded cough strokes / inhibition of the response to the tussigenic stimulus: 10 mg/kg intravenous, 0.0045% capsaicin aerosol 5 minutes after administration; for recorded cough strokes: during the 4 minute aerosol; for inhibition of the response to the tussigenic stimulus: strokes recorded during 4 minute aerosol
Method: The tests were carried out on male Dunkin-Hartley Guinea pigs (4-6 animals for group), which were subjected to aerosol of a 0.0045% (p/v) capsaicin aqueous solution [Lavezzo A., Pulm. Pharmacol., 5, 143-147, 1992; Gallico L. et al, Br. J. Pharmacol., 112, 795-800. 1994] 5 minutes after intravenous administration of 0.5 ml of a (−)-1,2-cyclohexylidene-3-(4-phenyl-piperazin-1-yl)-propane-1,2-diol fumarate solution (DF 1689A, 10 mg/kg) compared with 0.5 ml of a levodropropizine solution, pH 4.5 (10 mg/kg) and with an equal volume of saline solution (control).

[2] = system: male Dunkin-Hartley Guinea pigs; assay: cough strokes after aerosol administration of the medicaments; assay type: in vivo, Guinea pig; settings: aerosol with 1% (w/v) aqueous solution for 10 minutes, compared with saline aerosol controls

SMILES | recorded cough strokes [1] | inhibition of the response to the tussigenic stimulus [1] [%] | inhibitory effect on number of cough strokes [2] | inhibition on the tussigen stimulus induced by capsaicin aerosol ([1]; 15 minutes after the intravenous administration) [%] | inhibition on the tussigen stimulus induced by capsaicin aerosol ([1]; 30 minutes after the intravenous administration) [%]
OCC(O)CN1CCN(c2ccccc2)CC1 (single isomer, unassigned; (-)) [levodropropizine, (−) 3-(4-phenyl-piperazin-1-yl)-1,2-propanediol, reference compound] | 5.17±0.54 | 43.6 | about 35% | – | –
O=C(O)/C=C/C(=O)O.c1ccc(N2CCN(C[C@H]3COC4(CCCCC4)O3)CC2)cc1 [DF 1689A, S(−)-1,2-cyclohexylidene-3-(4-phenyl-piperazin-1-yl)propane-1,2-diol fumarate] | 4.83±0.54 | 47.3 | about 35% | 34.6 | 27.3
